Assay results: ChEMBL document CHEMBL1201862, “PubChem BioAssay data set” (2004)
The source made the active and inactive calls.

Columns and labels:
H9c2 = assay: cells; type: functional, cell-based; settings: Rattus norvegicus, H9c2, Myocardium;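 also: confirmatory concentration-response retest of ultra-high-throughput screening hits for modulation of myocardial damage; cell death induced by hydrogen peroxide oxidative stress; compound pretreatment for 60 min then peroxide exposure for 2 h; potency is for protecting the cells against peroxide damage rather than for killing them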
[1] = target: T1, Calpain-2 catalytic subunit (Sus scrofa, UniProt P43367); assay: m-calpain protease blockers, concentration series – biochemical, fluorogenic peptide substrate, dose response (AID 1420); type: functional
T1 sequence (P43367 whole entry): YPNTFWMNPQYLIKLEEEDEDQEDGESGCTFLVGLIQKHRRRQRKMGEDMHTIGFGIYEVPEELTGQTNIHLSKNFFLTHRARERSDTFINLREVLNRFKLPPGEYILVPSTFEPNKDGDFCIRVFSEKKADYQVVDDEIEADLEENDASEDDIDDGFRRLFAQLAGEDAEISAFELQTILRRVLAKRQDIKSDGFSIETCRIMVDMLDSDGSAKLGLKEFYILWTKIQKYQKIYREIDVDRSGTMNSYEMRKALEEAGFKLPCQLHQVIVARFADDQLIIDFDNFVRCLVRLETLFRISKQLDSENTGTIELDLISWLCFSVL

[2] = target: T2, Replicative DNA helicase DnaB (Mycobacterium tuberculosis, UniProt P9WMR3); assay: DnaB intein splicing inhibitors, dose response, biochemical, cell-free fluorescence (AID 449749); type: functional
T2 sequence (P9WMR3 whole entry): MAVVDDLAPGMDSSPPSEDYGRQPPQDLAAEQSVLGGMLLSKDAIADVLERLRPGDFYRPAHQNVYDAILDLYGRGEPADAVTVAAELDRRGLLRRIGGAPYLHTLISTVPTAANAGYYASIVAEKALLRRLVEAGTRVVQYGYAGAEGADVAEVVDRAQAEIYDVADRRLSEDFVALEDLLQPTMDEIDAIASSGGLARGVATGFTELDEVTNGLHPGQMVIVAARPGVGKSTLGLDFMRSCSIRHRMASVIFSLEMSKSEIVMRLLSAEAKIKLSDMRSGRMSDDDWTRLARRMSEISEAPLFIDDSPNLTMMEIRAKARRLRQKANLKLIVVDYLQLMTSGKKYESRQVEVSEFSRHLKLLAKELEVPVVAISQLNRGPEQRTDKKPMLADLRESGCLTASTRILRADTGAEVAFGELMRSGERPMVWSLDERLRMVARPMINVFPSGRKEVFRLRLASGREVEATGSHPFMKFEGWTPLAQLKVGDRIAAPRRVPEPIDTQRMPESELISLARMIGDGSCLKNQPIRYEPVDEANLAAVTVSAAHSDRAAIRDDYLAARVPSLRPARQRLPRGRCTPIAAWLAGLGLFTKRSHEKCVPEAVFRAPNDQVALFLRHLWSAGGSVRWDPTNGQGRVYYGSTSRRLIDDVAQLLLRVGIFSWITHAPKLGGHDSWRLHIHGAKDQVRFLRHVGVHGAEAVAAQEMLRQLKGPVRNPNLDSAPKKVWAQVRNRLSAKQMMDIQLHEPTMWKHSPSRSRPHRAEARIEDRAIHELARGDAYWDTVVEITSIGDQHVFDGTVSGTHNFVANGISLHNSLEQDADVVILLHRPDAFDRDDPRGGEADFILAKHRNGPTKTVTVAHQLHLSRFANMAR

Protein RecA = target: T3, Protein RecA (Mycobacterium tuberculosis, UniProt P9WHJ3); assay: Fluorescence Cell-Free Homogeneous Dose Retest to Identify Inhibitors of RecA-Intein Splicing Activity. [Related pubchem assays (depositor defined):AID2097, AID2223, AID489010, AID492950]; type: functional
T3 sequence (P9WHJ3 whole entry): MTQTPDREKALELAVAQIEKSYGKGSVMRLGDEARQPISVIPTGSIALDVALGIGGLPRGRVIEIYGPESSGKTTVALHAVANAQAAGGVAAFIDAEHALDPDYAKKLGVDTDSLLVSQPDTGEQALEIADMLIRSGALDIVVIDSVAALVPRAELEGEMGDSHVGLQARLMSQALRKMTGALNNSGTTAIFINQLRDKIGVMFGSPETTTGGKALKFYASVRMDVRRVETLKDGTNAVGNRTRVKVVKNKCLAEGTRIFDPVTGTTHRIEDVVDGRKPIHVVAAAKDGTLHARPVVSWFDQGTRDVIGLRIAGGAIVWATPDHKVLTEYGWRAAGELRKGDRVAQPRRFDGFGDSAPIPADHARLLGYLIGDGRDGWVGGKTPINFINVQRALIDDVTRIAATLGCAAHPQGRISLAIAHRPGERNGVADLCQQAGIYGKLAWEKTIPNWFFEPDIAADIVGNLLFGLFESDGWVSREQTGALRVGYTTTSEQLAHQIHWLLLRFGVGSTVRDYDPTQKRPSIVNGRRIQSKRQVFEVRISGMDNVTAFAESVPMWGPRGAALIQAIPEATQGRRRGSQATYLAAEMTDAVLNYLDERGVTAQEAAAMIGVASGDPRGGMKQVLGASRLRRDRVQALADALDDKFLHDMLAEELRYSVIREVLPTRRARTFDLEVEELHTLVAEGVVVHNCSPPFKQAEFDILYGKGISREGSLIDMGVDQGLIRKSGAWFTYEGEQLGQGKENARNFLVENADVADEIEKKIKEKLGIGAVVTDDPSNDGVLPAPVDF

[3] = target: T4, Corticotropin-releasing factor receptor 2/Corticotropin-releasing factor-binding protein (Homo sapiens, UniProt P24387+Q13324); assay: Dose Response confirmation of uHTS hits for small molecule antagonists of the CRF-binding protein and CRF-R2 receptor complex.; type: functional; settings: read-out: IC50_Mean
T4 sequence (Q13324 whole entry): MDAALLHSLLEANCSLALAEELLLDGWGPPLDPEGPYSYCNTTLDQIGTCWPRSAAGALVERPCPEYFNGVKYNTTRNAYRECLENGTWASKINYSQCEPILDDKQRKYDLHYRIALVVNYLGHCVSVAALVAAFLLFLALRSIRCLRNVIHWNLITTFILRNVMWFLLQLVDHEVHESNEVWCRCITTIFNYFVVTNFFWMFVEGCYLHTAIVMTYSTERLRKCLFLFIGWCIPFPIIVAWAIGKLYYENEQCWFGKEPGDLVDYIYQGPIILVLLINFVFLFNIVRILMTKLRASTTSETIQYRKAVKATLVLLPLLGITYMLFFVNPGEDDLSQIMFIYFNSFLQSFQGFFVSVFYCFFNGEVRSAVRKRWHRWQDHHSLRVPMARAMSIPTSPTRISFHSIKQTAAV
T4 sequence (P24387 whole entry): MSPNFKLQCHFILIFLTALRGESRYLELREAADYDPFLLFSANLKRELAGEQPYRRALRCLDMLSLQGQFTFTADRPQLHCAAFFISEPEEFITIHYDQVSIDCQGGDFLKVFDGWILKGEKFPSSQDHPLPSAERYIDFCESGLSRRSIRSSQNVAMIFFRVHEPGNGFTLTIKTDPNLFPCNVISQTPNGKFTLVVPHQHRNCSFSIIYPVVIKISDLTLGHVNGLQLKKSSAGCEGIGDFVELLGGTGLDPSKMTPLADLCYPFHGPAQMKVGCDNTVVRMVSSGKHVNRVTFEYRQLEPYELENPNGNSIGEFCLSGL

[4] = target: T4, Corticotropin-releasing factor receptor 2/Corticotropin-releasing factor-binding protein; assay: activators of CRF receptor 2 with binding protein – uHTS hits, confirmation (AID 602473); type: functional; settings: read-out: EC50_Mean
H4 = assay: Luminescence Cell-Based Dose Response HTS to Identify Activators of 5'UTR Stem-Loop Driven Prion Protein mRNA Translation in H4 Neuroglioblastoma Cells. [Related pubchem assays: 1829 (Project Summary), 1814 (Primary HTS)]; type: functional; settings: Homo sapiens
Cytochrome P450 1A2 = target: T5, Cytochrome P450 1A2 (Homo sapiens, UniProt P05177);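 also: PubChem cytochrome P450 panel assay, CYP1A2 panel member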
T5 sequence (P05177 whole entry): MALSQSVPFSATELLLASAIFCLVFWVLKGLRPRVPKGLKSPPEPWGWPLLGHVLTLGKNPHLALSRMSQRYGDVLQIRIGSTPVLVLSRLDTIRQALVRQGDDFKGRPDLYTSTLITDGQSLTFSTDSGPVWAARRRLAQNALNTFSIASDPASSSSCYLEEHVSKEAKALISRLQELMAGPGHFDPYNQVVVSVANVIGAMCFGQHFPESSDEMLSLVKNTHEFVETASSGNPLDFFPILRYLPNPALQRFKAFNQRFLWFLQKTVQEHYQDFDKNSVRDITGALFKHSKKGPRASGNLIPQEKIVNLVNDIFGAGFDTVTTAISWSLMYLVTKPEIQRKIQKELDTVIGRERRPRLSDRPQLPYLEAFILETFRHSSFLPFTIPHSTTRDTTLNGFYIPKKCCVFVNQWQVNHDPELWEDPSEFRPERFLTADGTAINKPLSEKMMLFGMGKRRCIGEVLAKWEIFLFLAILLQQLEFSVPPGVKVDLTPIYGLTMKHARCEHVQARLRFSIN

Cytochrome P450 2D6 = Cytochrome P450 2D6 (Homo sapiens, UniProt P10635);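 also: CYP2D6 member of a cytochrome P450 panel assay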
Chain of Cytochrome P450 2D6 (P10635 whole entry): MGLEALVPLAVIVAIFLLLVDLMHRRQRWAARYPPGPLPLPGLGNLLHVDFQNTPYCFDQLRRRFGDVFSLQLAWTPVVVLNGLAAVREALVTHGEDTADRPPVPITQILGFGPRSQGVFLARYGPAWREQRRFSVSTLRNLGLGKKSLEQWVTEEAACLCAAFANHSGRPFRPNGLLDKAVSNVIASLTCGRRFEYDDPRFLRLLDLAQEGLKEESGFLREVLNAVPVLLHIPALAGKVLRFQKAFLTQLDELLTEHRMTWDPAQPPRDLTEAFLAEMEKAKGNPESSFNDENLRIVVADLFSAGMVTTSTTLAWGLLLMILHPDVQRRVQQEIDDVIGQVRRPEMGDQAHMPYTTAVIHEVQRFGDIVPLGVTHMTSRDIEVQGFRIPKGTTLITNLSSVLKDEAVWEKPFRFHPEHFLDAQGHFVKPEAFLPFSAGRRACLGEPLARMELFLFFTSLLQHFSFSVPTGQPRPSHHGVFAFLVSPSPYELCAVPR

COCc1c(C(=O)Nc2ccc3nc(N4CCOCC4)sc3c2)oc2ccccc12
IC50 (H9c2): > 79 µM (inactive)

Cn1c(N)c(C(=O)COC(=O)C23CC4CC(CC(C4)C2)C3)c(=O)n(C)c1=O
IC50 [1]: 2.26 µM (active)

O=C1CC/[N+](=C\c2ccc(Cl)cc2)[N-]1
AC50 [2]: 150 µM (active)
EC50 (Protein RecA): 3.64 µM (active)

CCNc1nc(NC(C)CC)nc(Oc2ccc(OCC)nn2)n1 (stereo unspecified)
IC50 [3]: > 47.1 µM (inactive)
EC50 [4]: > 53 µM (inactive)

CCOc1ccc(NC(=NCc2ccc3c(c2)OCO3)SC2CC(=O)N(c3ccccc3)C2=O)cc1 (stereo unspecified)
IC50 [1]: > 50 µM (not active)

COCc1nc2ccccc2n1Cc1ccc(Br)cc1
IC50 [1]: 8.1 µM (not active)

CN(c1ccccc1)c1ccc([N+](=O)[O-])c2nonc12
AC50 [2]: 74.7 µM (active)
EC50 (Protein RecA): 5.22 µM (active)

O=C(OCc1nnn(Cc2ccccc2)c1-c1c(COC(=O)c2ccccc2)nnn1Cc1ccccc1)c1ccccc1
IC50 [1]: 2.52 µM (not active)

COc1ccc(C(=O)ON=C(N)Cc2ccc(Cl)c(Cl)c2)cc1OC
IC50 [3]: 7.41 µM (active)
EC50 [4]: > 53 µM (inactive)

COc1cc(-c2cc3nc(NCCOc4ccccc4)ccn3n2)cc(OC)c1OC
IC50 (H9c2): > 79 µM (inactive)

O=C1CCc2nc3ccccc3c(=O)n2N1
IC50 [3]: > 47.1 µM (inactive)
EC50 [4]: > 53 µM (inactive)

CCO/C(O)=C1/C(C)=NC(SCC(=O)OC)=C(C#N)C1c1ccc(C(=O)OC)cc1 (stereo unspecified)
IC50 [3]: < 0.368 µM (active)
EC50 [4]: > 53 µM (inactive)

Cc1ccc(S(=O)(=O)Nc2cc(O)nc(SCC(=O)Nc3cccc(C(F)(F)F)c3)n2)cc1
IC50 [3]: > 47.1 µM (inactive)
EC50 [4]: > 53 µM (inactive)

COc1ccc(/C=C2/C(=O)N(Cc3ccccc3)N=C2C)cc1
AC50 [2]: 4.12 µM (active)
EC50 (Protein RecA): 1.91 µM (active)

CC1C(=O)C(C)C(c2cc(Br)ccc2O)NC1c1cc(Br)ccc1O (stereo unspecified)
IC50 [3]: > 47.1 µM (inactive)
EC50 [4]: > 53 µM (inactive)

CCC(C)(C)NC(=O)c1ccc(S(=O)(=O)N2CCCCCC2)cc1
IC50 [1]: 22.9 µM (not active)

O=[N+]([O-])c1cc(-c2nnc(O)c3ccccc23)ccc1NCCO
IC50 (H9c2): 16.6 µM (active)

CCc1ccc(NC(=O)c2ccccc2NC(=O)C2CCCO2)cc1 (stereo unspecified)
EC50 (H4): 2.64 µM (active)

COC(=O)c1ccc(/C=N/NS(=O)(=O)c2cc(C)ccc2C)cc1
IC50 [1]: 6.58 µM (not active)

CCOc1cc(C(c2c(C)n[nH]c2O)c2c(C)n[nH]c2O)ccc1OCc1ccc([N+](=O)[O-])cc1
AC50 [2]: 0.281 µM (active)
EC50 (Protein RecA): 0.159 µM (active)

COc1ccccc1/N=C1\C(Cl)=C(O)OC1OC(=O)c1ccco1 (stereo unspecified)
AC50 [2]: 12.5 µM (active)
EC50 (Protein RecA): 13.4 µM (active)

CCOC(=O)C1=NN(C(=O)c2ccco2)C2(CC2)C1
IC50 (H9c2): > 79 µM (inactive)

CC(C)c1ccc(C(=O)NC(=S)NCc2cccnc2)cc1
IC50 [1]: 27 µM (not active)

Cc1cccc([N+]2=C3CCCCN3C(O)(c3cccs3)C2)c1 (stereo unspecified)
IC50 [3]: > 47.1 µM (inactive)
EC50 [4]: > 53 µM (inactive)

CN1CCN(CCc2nc3cc(NC(=O)c4ccco4)ccc3n2C)CC1
IC50 [1]: > 50 µM (not active)

Cc1sc2nc(CSCC(=O)N(CCC#N)c3ccccc3F)nc(O)c2c1C
IC50 (H9c2): > 79 µM (inactive)

CC(CCc1ccccc1)NC(=O)/C=C/c1ccc(F)cc1 (stereo unspecified)
IC50 [1]: 27.6 µM (not active)

CCOC(=O)N1CCN(C(=O)CSc2nnc(CNC(=O)c3ccccc3F)o2)CC1
IC50 [3]: > 47.1 µM (inactive)
EC50 [4]: > 53 µM (inactive)

O=C(CCn1nc(-c2ccccc2)ccc1=O)N1CCOCC1
IC50 [3]: > 47.1 µM (inactive)
EC50 [4]: > 53 µM (inactive)

O=C1CC(c2cccnc2)=NN1c1ccccc1
AC50 [2]: 3.7 µM (active)
EC50 (Protein RecA): 13.9 µM (active)

Cc1ccc(NC(=O)NN(C)c2c(Cl)c(Cl)nn2C)cc1
IC50 [1]: > 50 µM (not active)

CCCCOc1ccc(C(=O)N/C(=C\c2ccc(OC)cc2)C(=O)OCc2ccco2)cc1
IC50 (H9c2): > 79 µM (inactive)
AC50 (Cytochrome P450 1A2): 14.1 µM (inconclusive)
AC50 (Cytochrome P450 2D6): 7.94 µM (inconclusive)

COc1ccc(-c2cc(CNC(=O)CCl)on2)cc1
AC50 [2]: 262 µM (active)
EC50 (Protein RecA): 17.7 µM (active)
